In ChEMBL document CHEMBL1201862, “PubChem BioAssay data set” (2004):
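A five-concentration, 48-hour dose response in 96-well plates underlies each endpoint, interpolated linearly between surrounding concentrations. GI50 marks 50% less growth.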 The source made the active and inactive calls. Rule as the data show it: active = GI50 up to about 1.1 µM and inactive = higher.

Tests used:
Assay in all cases: NCI-60 cell line screen, 48 h
SF-295 = test system: SF-295
IGROV-1 = test system: IGROV-1
NCI-H522 = test system: NCI-H522
Malme-3M = test system: Malme-3M
DLD-1 = test system: DLD-1
SR = test system: SR
SNB-75 = test system: SNB-75
UACC-257 = test system: UACC-257
NCI-H23 = test system: NCI-H23
A498 = test system: A498
HOP-62 = test system: HOP-62
SF-539 = test system: SF-539
SF-268 = test system: SF-268
TK-10 = test system: TK-10
HCT-15 = test system: HCT-15
LOX IMVI = test system: LOX IMVI
OVCAR-8 = test system: OVCAR-8
UO-31 = test system: UO-31

Compound | GI50 (SF-295) | GI50 (IGROV-1) | GI50 (NCI-H522) | GI50 (Malme-3M) | GI50 (DLD-1) | GI50 (SR) | GI50 (SNB-75) | GI50 (UACC-257) | GI50 (NCI-H23) | GI50 (A498) | GI50 (HOP-62) | GI50 (SF-539) | GI50 (SF-268) | GI50 (TK-10) | GI50 (HCT-15) [µM] | GI50 (LOX IMVI) | GI50 (OVCAR-8) | GI50 (UO-31)
COC(=O)c1c/c(=N\NC(=O)CC(=O)Nc2ccc(C)cc2)c2ccccc2o1 | > 100 µM (inactive) | > 100 µM (inactive) | > 100 µM (inactive) | > 100 µM (inactive) | > 100 µM (inactive) | > 100 µM (inactive) | > 100 µM (inactive) | > 100 µM (inactive) | > 100 µM (inactive) | > 100 µM (inactive) | > 100 µM (inactive) | > 100 µM (inactive) | > 100 µM (inactive) | > 100 µM (inactive) | > 100 | > 100 µM (inactive) | > 100 µM (inactive) | > 100 µM (inactive)
O=C1Nc2cc(Cl)ccc2N=CC1NC(=O)C(c1ccccc1)c1ccccc1Cl (configuration not stated) | > 100 µM (inactive) | > 100 µM (inactive) | > 100 µM (inactive) | > 100 µM (inactive) | > 100 µM (inactive) | – | > 100 µM (inactive) | > 100 µM (inactive) | > 100 µM (inactive) | > 100 µM (inactive) | > 100 µM (inactive) | > 100 µM (inactive) | > 100 µM (inactive) | > 100 µM (inactive) | > 100 | > 100 µM (inactive) | > 100 µM (inactive) | > 100 µM (inactive)
CCN(CC)CC(C(=O)Nc1c(C)cccc1C)/C(C)=N\NC(=O)C[N+](C)(C)C (configuration not stated) | > 100 µM (inactive) | > 100 µM (inactive) | > 100 µM (inactive) | > 100 µM (inactive) | > 100 µM (inactive) | > 100 µM (inactive) | > 100 µM (inactive) | > 100 µM (inactive) | > 100 µM (inactive) | – | > 100 µM (inactive) | > 100 µM (inactive) | > 100 µM (inactive) | > 100 µM (inactive) | > 100 | > 100 µM (inactive) | > 100 µM (inactive) | > 100 µM (inactive)
O=C(Cc1ccccc1)N/N=C(/c1nc2ccc([N+](=O)[O-])cc2nc1O)C(O)c1ccco1 (configuration not stated) | > 100 µM (inactive) | > 100 µM (inactive) | 12.6 µM (inactive) | > 100 µM (inactive) | > 100 µM (inactive) | > 100 µM (inactive) | > 100 µM (inactive) | > 100 µM (inactive) | > 100 µM (inactive) | > 100 µM (inactive) | > 100 µM (inactive) | > 100 µM (inactive) | > 100 µM (inactive) | > 100 µM (inactive) | 67.8 | > 100 µM (inactive) | > 100 µM (inactive) | > 100 µM (inactive)
O=C(Nc1ccc(Cl)c(Cl)c1)C(=O)Nn1c(S)nc2ccccc2c1=O | > 100 µM (inactive) | > 100 µM (inactive) | > 100 µM (inactive) | > 100 µM (inactive) | > 100 µM (inactive) | > 100 µM (inactive) | > 100 µM (inactive) | > 100 µM (inactive) | 76.9 µM (inactive) | > 100 µM (inactive) | > 100 µM (inactive) | > 100 µM (inactive) | > 100 µM (inactive) | > 100 µM (inactive) | > 100 | > 100 µM (inactive) | > 100 µM (inactive) | > 100 µM (inactive)
CC1NOC(=O)C1/N=N/c1ccc(Cl)cc1Cl (configuration not stated) | 28.8 µM (inactive) | 26.9 µM (inactive) | 17.8 µM (inactive) | 25.5 µM (inactive) | 33.9 µM (inactive) | 18.7 µM (inactive) | 20.9 µM (inactive) | 24.5 µM (inactive) | 20.8 µM (inactive) | 35.3 µM (inactive) | 43 µM (inactive) | 47.4 µM (inactive) | 32.2 µM (inactive) | 23.8 µM (inactive) | 18.5 | 27.2 µM (inactive) | 31.6 µM (inactive) | 24.4 µM (inactive)
N/N=C(\CC1OC(=O)c2ccccc21)c1ccco1 (configuration not stated) | > 100 µM (inactive) | > 100 µM (inactive) | > 100 µM (inactive) | > 100 µM (inactive) | > 100 µM (inactive) | – | > 100 µM (inactive) | > 100 µM (inactive) | > 100 µM (inactive) | > 100 µM (inactive) | – | > 100 µM (inactive) | > 100 µM (inactive) | > 100 µM (inactive) | > 100 | 80 µM (inactive) | – | > 100 µM (inactive)
Cc1cc(=O)oc2cc(OCc3nc4ccccc4c(=O)n3-c3ccccc3)ccc12 | 58.2 µM (inactive) | > 100 µM (inactive) | > 100 µM (inactive) | > 100 µM (inactive) | > 100 µM (inactive) | – | 20.7 µM (inactive) | – | > 100 µM (inactive) | > 100 µM (inactive) | 97.7 µM (inactive) | > 100 µM (inactive) | > 100 µM (inactive) | > 100 µM (inactive) | > 100 | > 100 µM (inactive) | 45.1 µM (inactive) | –
CC(C)C1CO[C@]2(C)CCC(=O)N12 (some centres not stated) | > 100 µM (inactive) | > 100 µM (inactive) | > 100 µM (inactive) | > 100 µM (inactive) | > 100 µM (inactive) | > 100 µM (inactive) | > 100 µM (inactive) | > 100 µM (inactive) | > 100 µM (inactive) | – | > 100 µM (inactive) | > 100 µM (inactive) | > 100 µM (inactive) | > 100 µM (inactive) | > 100 | – | > 100 µM (inactive) | > 100 µM (inactive)
Cn1c(=O)c2[nH]cnc2n(CC(N)=O)c1=O | – | > 100 µM (inactive) | > 100 µM (inactive) | > 100 µM (inactive) | > 100 µM (inactive) | > 100 µM (inactive) | > 100 µM (inactive) | – | > 100 µM (inactive) | > 100 µM (inactive) | > 100 µM (inactive) | > 100 µM (inactive) | > 100 µM (inactive) | > 100 µM (inactive) | > 100 | – | > 100 µM (inactive) | > 100 µM (inactive)
O=C(CO[N+](=O)[O-])OCC(=O)c1ccccc1 | > 100 µM (inactive) | > 100 µM (inactive) | > 100 µM (inactive) | > 100 µM (inactive) | > 100 µM (inactive) | > 100 µM (inactive) | > 100 µM (inactive) | > 100 µM (inactive) | > 100 µM (inactive) | – | > 100 µM (inactive) | > 100 µM (inactive) | > 100 µM (inactive) | > 100 µM (inactive) | > 100 | > 100 µM (inactive) | > 100 µM (inactive) | > 100 µM (inactive)
CN1CCN(CCNc2ccc(CO)c3sc4ccccc4c(=O)c23)CC1 | 5.93 µM (inactive) | 11.1 µM (inactive) | 3.38 µM (inactive) | 11.5 µM (inactive) | 11.7 µM (inactive) | 2.51 µM (inactive) | 9.48 µM (inactive) | 15.2 µM (inactive) | 12.9 µM (inactive) | – | 5.06 µM (inactive) | 13.2 µM (inactive) | 11.6 µM (inactive) | 18.3 µM (inactive) | 6.32 | – | 9.38 µM (inactive) | 14.7 µM (inactive)
O=C(CC(=O)Nc1cccc(Cl)c1)NNCC(=O)Nc1nnc(-c2ccccc2)s1 | > 100 µM (inactive) | > 100 µM (inactive) | 64.1 µM (inactive) | – | 58.6 µM (inactive) | 41.2 µM (inactive) | 9.38 µM (inactive) | 99.1 µM (inactive) | 94.6 µM (inactive) | 20.8 µM (inactive) | 21.9 µM (inactive) | > 100 µM (inactive) | 31.8 µM (inactive) | 45.2 µM (inactive) | 39.3 | 43.2 µM (inactive) | 20.8 µM (inactive) | 45 µM (inactive)
CCOC(=O)C(=Cc1ccc(C(=O)OC)cc1)C(=O)OCC | 5.26 µM (inactive) | 3.01 µM (inactive) | 1.33 µM (inactive) | 1.8 µM (inactive) | 2.12 µM (inactive) | – | 2.07 µM (inactive) | – | 1.76 µM (inactive) | 13.2 µM (inactive) | 2.2 µM (inactive) | 1.67 µM (inactive) | 2.4 µM (inactive) | 2.88 µM (inactive) | 2.37 | 1.73 µM (inactive) | 2.98 µM (inactive) | –
Nn1c(S)nnc1NNC(=O)C(=O)Nc1cc(Cl)c(Cl)cc1Cl | > 100 µM (inactive) | > 100 µM (inactive) | > 100 µM (inactive) | > 100 µM (inactive) | > 100 µM (inactive) | – | 15.5 µM (inactive) | > 100 µM (inactive) | > 100 µM (inactive) | > 100 µM (inactive) | > 100 µM (inactive) | > 100 µM (inactive) | > 100 µM (inactive) | > 100 µM (inactive) | > 100 | > 100 µM (inactive) | > 100 µM (inactive) | > 100 µM (inactive)
CCOc1ccc(NC(=O)/C(Cc2nc3ccccc3nc2O)=N\O)cc1 | – | > 100 µM (inactive) | > 100 µM (inactive) | > 100 µM (inactive) | > 100 µM (inactive) | – | 70.1 µM (inactive) | > 100 µM (inactive) | > 100 µM (inactive) | > 100 µM (inactive) | > 100 µM (inactive) | > 100 µM (inactive) | > 100 µM (inactive) | > 100 µM (inactive) | > 100 | > 100 µM (inactive) | > 100 µM (inactive) | > 100 µM (inactive)
CCOC(=O)C1S/C(=N\c2ccc(Cl)cc2)N=C1C (configuration not stated) | 19.6 µM (inactive) | 19.5 µM (inactive) | 17.3 µM (inactive) | 19.9 µM (inactive) | 14.1 µM (inactive) | – | 21.3 µM (inactive) | > 10 µM (inactive) | 18 µM (inactive) | 18.3 µM (inactive) | 20.2 µM (inactive) | 17.9 µM (inactive) | 17 µM (inactive) | 28.4 µM (inactive) | 16.1 | 18.6 µM (inactive) | 22.3 µM (inactive) | 19 µM (inactive)
